Assay results reported in US10626113B2, “Phosphodiesterase inhibitors and uses thereof” (THE TRUSTEES OF COLUMBIA UNIVERSITY IN THE CITY OF NEW YORK, priority 2012, dated 2020).

What was measured:
[1] = system: LTP at the CA3-CA1 connection of hippocampal slices; assay: Long-term potentiation in hippocampal slices, compound in bath perfusion; set-up: species or system mice; details: 50 nM bath perfusion
[2] = Acute toxicity study with histology; type: in vivo; details: 120 or 240 mg/kg, i.p.
Excerpt: Brain, muscle, kidney, and liver were harvested from each mouse, and tissue from each organ was examined histologically by a board-certified pathologist for signs of toxicity.

APP/PS1 mice = assay: Contextual fear conditioning (fear memory); type: in vivo; details: 3 mg/kg i.p. for 3 weeks
Description: Fear conditioning was assessed as described in B. Gong, O. V. Vitolo, F. Trinchese, S. Liu, M. Shelanski, O. Arancio, Persistent improvement in synaptic and cognitive functions in an Alzheimer mouse model after rolipram treatment, J. Clin. Invest. 114 (2004) 1624-1634; F. Trinchese, S. Liu, F. Battaglia, S. Walter, P. M. Mathews, O. Arancio, Progressive age-related development of Alzheimer-like pathology in APP/PS1 mice, Ann. Neurol. 55 (2004) 801-814; and B. Gong, Z. Cao, P. Zheng, O. V. Vitolo, S. Liu, A. Staniszewski, D. Moolman, H. Zhang, M. Shelanski, O. Arancio, Ubiquitin hydrolase Uch-L1 rescues beta-amyloid-induced decreases in synaptic function and contextual memory, Cell 126 (2006) 775-788; each herein incorporated by reference in its entirety. […] Freezing behavior, defined as the absence of movements except for respiratory excursions, was scored using Freezeview software (Med Associates, St. Albans, Vt.). Contextual fear learning was evaluated 24 hrs after training by measuring freezing responses for 5 min in the same chamber where the mice were trained. Cued fear learning was evaluated 24 hrs after contextual testing. The mice were placed in a novel context for 2 min (pre-CS test), after which they were given a CS for 3 min (CS test), and freezing behavior was measured during the first 30 sec that mimic the CS-US conditioning and the remaining 2.5 min. […]

With `COc1ccc(CNc2c3c(nc4ccc(C#N)cc24)CCN(C(C)=O)C3)cc1Cl` [Compound H, 2-acetyl-10-[(3-chloro-4-methoxybenzyl)amino]-1,2,3,4-tetrahydrobenzo[b][1,6]naphthyridine-8-carbonitrile] the “effect on LTP of WT slices” value [1] was “no effect”, the “brain sections, CD45 immunostain” value [2] was “no signs of inflammation” and the “brain sections, GFAP immunostain” value [2] was “no signs of gliosis”. The “brain sections, H&E” value [2] was “did not show any signs of toxicity”, the “brain sections, LFB-PAS stain” value [2] was “no signs of demyelination” and the “kidney sections, H&E” value [2] was “no toxicity”. The “kidney sections, PAS stain” value [2] was “did not show any abnormalities in the glomerular basement membrane”, the “kidney sections, trichrome stain” value [2] was “no fibrosis” and the “liver sections, H&E” value [2] was “did not show any signs of toxicity”. For the same compound, the “liver sections, trichrome stain” value [2] was “no fibrosis or cirrhotic liver disease”, the “muscle sections, H&E” value [2] was “no signs of toxicity” and the “muscle sections, trichrome stain” value [2] was “no muscle fibrosis”. For the same compound, the “effect on contextual fear memory of WT mice” value (APP/PS1 mice) was “no effect”.
